Data on 14 compounds can be found in patent EP4678629A1, “IONIZABLE LIPID MOLECULE, PREPARATION METHOD THEREFOR AND USE THEREOF” (Maxirna (Shanghai) Pharmaceutical Co., Ltd., priority 2023, dated 2024).

A short description of data set [1]: Size and polydispersity index (PDI) of the lipid nanoparticle by dynamic light scattering. Type of data set: physicochemical. The conditions noted are these: LNP encapsulating eGFP mRNA, ionizable lipid/DOPE/cholesterol/DMG-PEG2000 50/10/48.25/1.25 mol%, N/P 12; for Particle size: in nm (unit assumed). How it is done: (§1) The ionizable lipid compound and positive control 1 from Example I were dissolved in ethanol at a molar ratio of 50:10:48.25:1.25 with DOPE, cholesterol, and DMG-PEG2000 (all purchased from A.V.T (Shanghai) Pharmaceutical Co., Ltd.) to prepare an ethanol lipid solution. The enhanced green fluorescent protein (eGFP) mRNA was diluted in 20 mM citrate buffer (pH=6.1) to obtain an mRNA aqueous solution. By using a microfluidic device (Micro&Nano Biologics Co., Ltd., model: INano ™ L) mix ethanol lipid solution and mRNA aqueous solution in a volume ratio of 1:3 to prepare a lipid nanoparticle with a total lipid to mRNA N/P ratio of 12. The medium was replaced by ultrafiltration, ethanol was removed and volumed with DPBS. Finally, the lipid nanoparticle was filtered through a 0.2 µm sterile filter to obtain an LNP preparation encapsulating eGFP mRNA using ionizable lipid/DOPE/cholesterol/DMG-PEG2000 (50/10/48.25/1.25 mol%), with an mRNA content of 0.002 mg/ml-0.5 mg/mL.
(§2) Using Malvern Zetasizer Nano ZS (Malvern UK), the size and polydispersity index (PDI) of the lipid nanoparticle were determined by dynamic light scattering in 173° backscatter detection mode, and the encapsulation efficiency was measured by Ribogreen method.

The nature of data set [2]: Encapsulation efficiency of the lipid nanoparticle (eGFP mRNA) by Ribogreen method. Type of data set: physicochemical. The conditions noted are these: LNP encapsulating eGFP mRNA, ionizable lipid/DOPE/cholesterol/DMG-PEG2000 50/10/48.25/1.25 mol%, N/P 12. How it is done: as §1, §2
The test system of a further data set is DC2.4 cells. Kind of data set: In vitro transfection of cells with eGFP-mRNA lipid nanoparticle (LNP preparation), fluorescence imaging and flow cytometry. Type of data set: cell-based, mouse. The conditions noted are these: eGFP positivity rate, DC2.4 cells, 200 ng of mRNA per well, after 24 hours. The text has this:
(§3) This example used mouse bone marrow-derived dendritic cells DC2.4 (purchased from Millipore) as the validation cell line for a lipid nanoparticle transfection experiment. DC2.4 cells adhered to the wall for growth. All operational steps of cell culture strictly followed the prescribed procedures, using sterile reagents for aseptic operations under a sterile workbench. The main operational steps involved were as follows: • 1) Cell recovery: the preserved cell cryopreservation solution was removed from the -80 °C freezer and immediately placed in a 37 °C water bath for rapid and continuous shaking, allowing it to completely melt within one minute. Fresh culture medium was added to a 15 mL centrifuge tube in advance, and the cell fluid was added to the centrifuge tube in a biosafety cabinet. A centrifuge tube of the same mass was taken, placed symmetrically in the centrifuge, and centrifuged at low speed for 5 minutes at 1200 rpm. After centrifugation, the upper clear liquid was removed, and an appropriate amount of culture medium was slowly added along the tube wall. After the cells were gently blown and dispersed evenly, the cell suspension was drawn and added to the prepared culture bottle. The state and distribution of cells in the early stage of recovery were observed under a microscope. The culture bottle was incubated in a 5% CO2 incubator at 37 °C, and the recovery time was recorded. • 2) Cell passaging: Under a microscope, if the cell density in the field of view reached 80%-90%, cells could be passaged and cultured. Adherent cells required trypsin digestion. In order to avoid residual serum in the culture medium reducing trypsin activity, the original culture medium was removed, and DPBS solution was added to wash once. After suctioning out the DPBS solution, trypsin was added to degrade the protein at the intercellular junction, thereby separating the cells and facilitating further cultivation. The mixture was gently shaken well and placed into the incubator for digestion for 2-3 minutes. After digestion was complete, an appropriate amount of culture medium was immediately added to the original culture dish to terminate digestion. Finally, a pipette was used to carefully blow off the cells and blow them until they were evenly dispersed, and then the cells were inoculated and subcultured in a certain proportion according to experimental requirements.
(§4) Transfection of DC2.4 cells • 1) DC2.4 cell recovery: the frozen DC2.4 cells were taken out from the -80 °C refrigerator and immediately put into a 37 °C water bath for rapid thawing. After melting, they were added to the preheated culture medium, and centrifuged at 1200 rpm for 5 minutes. The supernatant was discarded, and an appropriate amount of DMEM medium containing 10% FBS was added to resuspend the recovered DC2.4 cells, which were placed in a 37 °C, 5% CO2 incubator for activation culture. • 2) According to experimental requirements, DC2.4 cells were transfected into 24 well plates one day in advance. By counting cells, the number and viability of cells were recorded, and a cell suspension with 2 × 10^5 cells per well were taken. Then, a certain volume of DMEM medium containing 10% FBS was added and mixed evenly, wherein 1 mL was added per well for subsequent transfection experiments. • 3) After 24 hours, the culture medium was gently aspirated with a pipette 30 minutes in advance, and each well was washed with 1 mL of DPBS and aspirated. […] The mixture was placed in a 37 °C, 5% CO2 incubator for activation cultivation. • 6) After 24 hours, cell viability (%), eGFP positivity rate (%), and mean fluorescence intensity data were obtained through cell fluorescence imaging and flow cytometry.

Experiment in data set [3]: as above
It counts as cell-based, mouse. The following applies: mouse, dc2.4 cells, 200 ng of mRNA per well, after 24 hours; read-out: Cell viability, %.
Source text: as §3, §4

Compound `CCCCCCCCCCCOC(=O)CCCCCCCN(CCCO)CCCN(CCCCCCCC(=O)OCCCCCCCCCCC)CCCCCCCC(=O)OCCCCCCCCCCC` [Example 18, Diundecyl 8,8'-((3-((3-hydroxypropyl)(8-oxo-8-(undecyloxy)octyl)amino)propyl)azanediyl)dioctanoate] returned a PDI in data set [1] of 0.25. In data set [2], the “Encapsulation rate, %” value came to 88.82%. The “Positive rate, %” value in the data set with DC2.4 cells was found to be 96.79%. For the same compound, in data set [3], the viability at 24 h amounted to 90.6%.

On to `CCCCCC/C=C\COC(=O)CCCCCCCN(CCCO)CCCN(CCCCCCCC(=O)OC/C=C\CCCCCC)CCCCCCCC(=O)OC/C=C\CCCCCC` [Example 19, Di((Z)-non-2-en-1-yl)8,8'-((3-((3-hydroxypropyl)(8-(((Z)-non-2-en-1-yl)oxo)-8-oxooctyl)amino)propyl)azanediyl)dioctanoate], for which the PDI in data set [1] amounted to 0.26. In data set [2], the “Encapsulation rate, %” value worked out at 92.54%. Moreover, the “Positive rate, %” value in the data set on DC2.4 cells was 97.44%. In data set [3], the viability at 24 h amounted to 95.6%.

In data set [1], `CCCCCCCCCCCOC(=O)CCCCCCCN(CCCCO)CCCN(CCCCCCCC(=O)OCCCCCCCCCCC)CCCCCCCC(=O)OCCCCCCCCCCC` [Example 20, Diundecyl 8,8'-((3-((4-hydroxybutyl)(8-oxo-8-(undecyloxy)octyl)amino)propyl)azanediyl)dioctanoate] had a PDI of 0.18 and a Particle size of 89.98. Further, the “Encapsulation rate, %” value in data set [2] amounted to 79.02%. Moreover, in the data set on DC2.4 cells, the “Positive rate, %” value was 93.27%. The viability at 24 h in data set [3] amounted to 83.8%.

As for `CCCCCCCCCCCCCCCOC(=O)CCCCCCCN(CCO)CCCN(CCCCCCCC(=O)OCCCCCCCCCCCCCCC)CCCCCCCC(=O)OCCCCCCCCCCCCCCC` [Example 22, Dipentadecyl 8,8'-((3-((2-hydroxyethyl)(8-oxo-8-(pentadecyloxy)octyl)amino)propyl)azanediyl)dioctanoate], the PDI in data set [1] came to 0.11. Besides, in data set [2], the “Encapsulation rate, %” value was found to be 78.46%. The “Positive rate, %” value with DC2.4 cells is listed as 98.21%. In data set [3], the viability at 24 h worked out at 95.1%.

Consider `CCCCCCCCCCCOC(=O)CCCCCCCCCCCN(CCO)CCCN(CCCCCCCCCCCC(=O)OCCCCCCCCCCC)CCCCCCCCCCCC(=O)OCCCCCCCCCCC` [Example 23, Diundecyl 12,12'-((3-((2-hydroxyethyl)(12-oxo-12-(undecyloxy)dodecyl)amino)propyl)azanediyl)didodecanoate], for which the PDI in data set [1] stood at 0.26. Besides, the “Encapsulation rate, %” value in data set [2] stood at 92.58%. The “Positive rate, %” value with DC2.4 cells is recorded as 92.1%. Further, the viability at 24 h in data set [3] was determined as 87.5%.

Turning to `CCCCC/C=C\C/C=C\CCCCCCCCOC(=O)CCCCCCCN(CCO)CCCN(CCCCCCCC(=O)OCCCCCCCC/C=C\C/C=C\CCCCC)CCCCCCCC(=O)OCCCCCCCC/C=C\C/C=C\CCCCC` [Example 24, Di((9Z,12Z)-octadeca-9,12-dien-1-yl)8,8'-((3-((2-hydroxyethyl)(8-(((9Z,12Z)-octadeca-9,12-dien-1-yl)oxo)-8-oxooctyl)amino)propyl)azanediyl)dioctanoate], the PDI in data set [1] is given as 0.15. For the same compound, in data set [2], the “Encapsulation rate, %” value was 97.73%. Further, the “Positive rate, %” value in the data set with DC2.4 cells is reported as 92.27%. For the same compound, the viability at 24 h in data set [3] was found to be 76%.

The compound `CCCCCC/C=C\COC(=O)CCCCCN(CCO)CCCN(CCCCCC(=O)OC/C=C\CCCCCC)CCCCCC(=O)OC/C=C\CCCCCC` [Example 25, Di((Z)-non-2-en-1-yl)6,6'-((3-((2-hydroxyethyl)(6-(((Z)-non-2-en-1-yl)oxo)-6-oxohexyl)amino)propyl)azanediyl)dihexanoate] came in with a PDI in data set [1] of 0.17. Further, the “Encapsulation rate, %” value in data set [2] stood at 98.27%. In addition, the “Positive rate, %” value in the data set on DC2.4 cells is listed as 94.29%. In data set [3], the viability at 24 h turned out to be 76.6%.

In data set [1], `CCCCCCCCCCCCCOC(=O)CCCCCN(CCO)CCCN(CCCCCC(=O)OCCCCCCCCCCCCC)CCCCCC(=O)OCCCCCCCCCCCCC` [Example 26, Ditridecyl 6,6'-((3-((2-hydroxyethyl)(6-oxo-6-(tridecyloxy)hexyl)amino)propyl)azanediyl)dihexanoate] came in with a PDI of 0.09 and a Particle size of 95.80. For the same compound, the “Encapsulation rate, %” value in data set [2] stood at 99.66%. In addition, the “Positive rate, %” value in the data set with DC2.4 cells was found to be 95.84%. In addition, the viability at 24 h in data set [3] stood at 98.1%.

In data set [1], `CCCCCCCCCCCOC(=O)CCCCCN(CCCO)CCCN(CCCCCC(=O)OCCCCCCCCCCC)CCCCCC(=O)OCCCCCCCCCCC` [Example 27, Diundecyl 6,6'-((3-((3-hydroxypropyl)(6-oxo-6-(undecyloxy)hexyl)amino)propyl)azanediyl)dihexanoate] yielded a PDI of 0.12 and a Particle size of 88.43. Moreover, the “Encapsulation rate, %” value in data set [2] was determined as 99.65%. Besides, the “Positive rate, %” value with DC2.4 cells was 97.36%. Further, in data set [3], the viability at 24 h turned out to be 98.2%.

For `CCCCCCCCCCCOC(=O)CCCCCN(CCCCO)CCCN(CCCCCC(=O)OCCCCCCCCCCC)CCCCCC(=O)OCCCCCCCCCCC` [Example 28, Diundecyl 6,6'-((3-((4-hydroxybutyl)(6-oxo-6-(undecyloxy)hexyl)amino)propyl)azanediyl)dihexanoate], in data set [1], the PDI was 0.17. In addition, the “Encapsulation rate, %” value in data set [2] is on record as 99.47%. Besides, the “Positive rate, %” value in the data set with DC2.4 cells came to 97.51%. Moreover, the viability at 24 h in data set [3] was 92.9%.

`CCCCCCCCCCCCCOC(=O)CCCCCCCN(CCCO)CCCN(CCCCCCCC(=O)OCCCCCCCCCCCCC)CCCCCCCC(=O)OCCCCCCCCCCCCC` [Example 29] gave a PDI in data set [1] of 0.16. Further, the “Encapsulation rate, %” value in data set [2] was 99.55%. Moreover, the “Positive rate, %” value with DC2.4 cells was 95.33%. Also, the viability at 24 h in data set [3] stood at 96.7%.

On to `CCCCCCCCCCCCCOC(=O)CCCCCN(CCCO)CCCN(CCCCCC(=O)OCCCCCCCCCCCCC)CCCCCC(=O)OCCCCCCCCCCCCC` [Example 30, 6,6'-((3-((3-hydroxypropyl)(6-oxo-6-(tridecyloxy)hexyl)amino)propyl)azadiyl)ditridecyl dihexanoate], for which the PDI in data set [1] stood at 0.09. In data set [2], the “Encapsulation rate, %” value is 99.66%. Further, the “Positive rate, %” value with DC2.4 cells amounted to 96.41%. In data set [3], the viability at 24 h amounted to 96.9%.

In data set [1], `CCCCCCCCCCCCCOC(=O)CCCCCN(CCCCO)CCCN(CCCCCC(=O)OCCCCCCCCCCCCC)CCCCCC(=O)OCCCCCCCCCCCCC` [Example 31, 6,6'-((3-((4-hydroxybutyl)(6-oxo-6-(tridecyloxy)hexyl)amino)propyl)azadiyl)ditridecyl dihexanoate] returned a PDI of 0.15 and a Particle size of 84.05. Further, in data set [2], the “Encapsulation rate, %” value is 99.36%. In addition, the “Positive rate, %” value in the data set on DC2.4 cells was 97.43%. In addition, the viability at 24 h in data set [3] was 94.4%.

For the compound `CCCCCCCCCCCOC(=O)CCCCCCN(CCO)CCCN(CCCCCCC(=O)OCCCCCCCCCCC)CCCCCCC(=O)OCCCCCCCCCCC` [Example 32], in data set [1], the PDI is on record as 0.13 and the Particle size was found to be 83.34. Further, in data set [2], the “Encapsulation rate, %” value is given as 99.30%. For the same compound, in the data set on DC2.4 cells, the “Positive rate, %” value worked out at 95.28%. For the same compound, the viability at 24 h in data set [3] was 96.6%.
